Laboratory results published in patent US10266526B2, “Substituted 1,2,3-triazoles as SMYD inhibitors for treating cancer” (EPIZYME, INC., priority 2014, dated 2019).

Target: SMYD3 (Homo sapiens (Human), UniProt Q9H7B4)
Experiment: SMYD3 biochemical assay (SMYD3 enzyme assay on MEKK2 protein substrate, 3H-SAM scintillation proximity assay)
Details: read-out: SMYD3 Biochem IC50
How it was run: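 Native full-length human SMYD3, expressed in E. coli, was preincubated with compound for 30 min at room temperature in 25 mM Tris-Cl pH 8.0, 1 mM TCEP, 0.005% BSG and 0.005% Tween 20. ³H-SAM plus GST-MEKK2 then started the reaction. It was stopped with unlabeled SAM (100 uM final), and methylated MEKK2 was read by SPA.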

Sequence of SMYD3 (Q9H7B4 whole entry): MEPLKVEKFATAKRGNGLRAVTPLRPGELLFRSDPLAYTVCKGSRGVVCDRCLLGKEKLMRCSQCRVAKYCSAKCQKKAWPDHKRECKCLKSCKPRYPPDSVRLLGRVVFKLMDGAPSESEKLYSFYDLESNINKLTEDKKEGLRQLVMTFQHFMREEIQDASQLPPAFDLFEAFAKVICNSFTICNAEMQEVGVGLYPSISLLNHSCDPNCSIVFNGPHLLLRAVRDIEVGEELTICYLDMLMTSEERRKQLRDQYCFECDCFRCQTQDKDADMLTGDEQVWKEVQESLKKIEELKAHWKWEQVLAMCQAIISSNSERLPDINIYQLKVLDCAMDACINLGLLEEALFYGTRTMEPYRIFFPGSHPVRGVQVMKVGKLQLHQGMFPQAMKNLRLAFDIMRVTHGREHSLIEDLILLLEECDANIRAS

SMILES	IC50
Cc1n[nH]c(C)c1C(=O)N[C@H]1CC[C@H](N)CC1 [compound 182, N-((1r,4r)-4-aminocyclohexyl)-3,5-dimethyl-1H-pyrazole-4-carboxamide]	> 100 µM
Cc1ncc(C(=O)NC(C)C2CCN(C(=O)[C@H](C)N)CC2)cn1 (stereo partly drawn) [compound 183, N-(1-(1-(L-alanyl)piperidin-4-yl)ethyl)-2-methylpyrimidine-5-carboxamide]	> 100 µM
Cc1ncc(C(=O)N[C@H]2CC[C@H](NC(=O)CCN)CC2)cn1 [compound 184, N-((1r,4r)-4-(3-aminopropanamido)cyclohexyl)-2-methylpyrimidine-5-carboxamide]	35.8 µM
Cc1cnc(C(=O)NC(C)C2CCN(C(=O)[C@H](C)N)CC2)cn1 (stereo partly drawn) [compound 185, N-(1-(1-(L-alanyl)piperidin-4-yl)ethyl)-5-methylpyrazine-2-carboxamide]	> 100 µM
Cc1cnc(C(=O)N[C@H]2CC[C@H](N)CC2)cn1 [compound 186, N-((1r,4r)-4-aminocyclohexyl)-5-methylpyrazine-2-carboxamide]	> 100 µM
CC(NC(=O)c1ccnc(N)c1)C1CCN(C(=O)[C@H](C)N)CC1 (stereo partly drawn) [compound 187, N-(1-(1-(L-alanyl)piperidin-4-yl)ethyl)-2-aminoisonicotinamide]	> 100 µM
CC(NC(=O)c1nccnc1N)C1CCN(C(=O)[C@H](C)N)CC1 (stereo partly drawn) [compound 188, N-(1-(1-(L-alanyl)piperidin-4-yl)ethyl)-3-aminopyrazine-2-carboxamide]	> 100 µM
CC(NC(=O)c1ccc(-c2ccccc2)cc1)C1CCN(C(=O)[C@H](C)N)CC1 (stereo partly drawn) [compound 189, N-(1-(1-(L-alanyl)piperidin-4-yl)ethyl)-[1,1′-biphenyl]-4-carboxamide]	> 100 µM
NS(=O)(=O)c1ccc(C(=O)N[C@H]2CC[C@H](N)CC2)cc1 [compound 190, N-((1r,4r)-4-aminocyclohexyl)-4-sulfamoylbenzamide]	> 100 µM
CC(NC(=O)c1ccc(O)nn1)C1CCN(C(=O)[C@H](C)N)CC1 (stereo partly drawn) [compound 191, N-(1-(1-(L-alanyl)piperidin-4-yl)ethyl)-6-hydroxypyridazine-3-carboxamide]	> 100 µM
N[C@H]1CC[C@H](NC(=O)c2ccc3[nH]ccc3c2)CC1 [compound 192, N-((1r,4r)-4-aminocyclohexyl)-1H-indole-5-carboxamide]	> 100 µM
CC(NC(=O)c1ccc2nc[nH]c2c1)C1CCN(C(=O)[C@H](C)N)CC1 (stereo partly drawn) [compound 193, N-(1-(1-(L-alanyl)piperidin-4-yl)ethyl)-1H-benzo[d]imidazole-6-carboxamide]	> 100 µM
CC(NC(=O)c1ccc2cnccc2c1)C1CCN(C(=O)[C@H](C)N)CC1 (stereo partly drawn) [compound 194, N-(1-(1-(L-alanyl)piperidin-4-yl)ethyl)isoquinoline-6-carboxamide]	> 100 µM
NCCC(=O)N[C@H]1CC[C@H](NC(=O)Cc2c[nH]c3ccccc23)CC1 [compound 195, N-((1r,4r)-4-(2-(1H-indol-3-yl)acetamido)cyclohexyl)-3-aminopropanamide]	> 100 µM
NCCC(=O)N[C@H]1CC[C@H](NC(=O)c2nccc3ccccc23)CC1 [compound 196, N-((1r,4r)-4-(3-aminopropanamido)cyclohexyl)isoquinoline-1-carboxamide]	> 100 µM
N[C@H]1CC[C@H](NC(=O)c2nccc3ccccc23)CC1 [compound 197, N-((1r,4r)-4-aminocyclohexyl)isoquinoline-1-carboxamide]	> 100 µM

SMILES	IC50
CC(NC(=O)c1cc2cc(F)ccc2[nH]1)C1CCN(C(=O)[C@H](C)N)CC1 (stereo partly drawn) [compound 198, N-(1-(1-(L-alanyl)piperidin-4-yl)ethyl)-5-fluoro-1H-indole-2-carboxamide]	41.7 µM
CC(NC(=O)c1cc(O)nc2ccccc12)C1CCN(C(=O)[C@H](C)N)CC1 (stereo partly drawn) [compound 199, N-(1-(1-(L-alanyl)piperidin-4-yl)ethyl)-2-hydroxyquinoline-4-carboxamide]	> 100 µM
NCCC(=O)N[C@H]1CC[C@H](NC(=O)c2cc(O)nc3ccccc23)CC1 [compound 200, N-((1r,4r)-4-(3-aminopropanamido)cyclohexyl)-2-hydroxyquinoline-4-carboxamide]	23.3 µM
N[C@H]1CC[C@H](NC(=O)c2cc(O)nc3ccccc23)CC1 [compound 201, N-((1r,4r)-4-aminocyclohexyl)-2-hydroxyquinoline-4-carboxamide]	> 100 µM
CC(NC(=O)c1ccc2c(c1)CCCC2)C1CCN(C(=O)[C@H](C)N)CC1 (stereo partly drawn) [compound 202, N-(1-(1-(L-alanyl)piperidin-4-yl)ethyl)-5,6,7,8-tetrahydronaphthalene-2-carboxamide]	59 µM
NCCC(=O)N[C@H]1CC[C@H](NC(=O)c2ccc3c(c2)CCCC3)CC1 [compound 203, N-((1r,4r)-4-(3-aminopropanamido)cyclohexyl)-5,6,7,8-tetrahydronaphthalene-2-carboxamide]	11.2 µM
N[C@H]1CC[C@H](NC(=O)c2ccc3c(c2)CCCC3)CC1 [compound 204, N-((1r,4r)-4-aminocyclohexyl)-5,6,7,8-tetrahydronaphthalene-2-carboxamide]	47.4 µM
CC(NC(=O)c1cnccn1)C1CCN(C(=O)[C@H](C)N)CC1 (stereo partly drawn) [compound 205, N-(1-(1-(L-alanyl)piperidin-4-yl)ethyl)pyrazine-2-carboxamide]	> 100 µM
CC(NC(=O)Cc1ccc(F)cc1)C1CCN(C(=O)[C@H](C)N)CC1 (stereo partly drawn) [compound 206, N-(1-(1-(L-alanyl)piperidin-4-yl)ethyl)-2-(4-fluorophenyl)acetamide]	> 100 µM
NCCC(=O)N[C@H]1CC[C@H](NC(=O)Cc2ccc(F)cc2)CC1 [compound 207, 3-amino-N-((1r,4r)-4-(2-(4-fluorophenyl)acetamido)cyclohexyl)propanamide]	> 100 µM
N[C@H]1CC[C@H](NC(=O)Cc2ccc(F)cc2)CC1 [compound 208, N-((1r,4r)-4-aminocyclohexyl)-2-(4-fluorophenyl)acetamide]	> 100 µM
CC(NC(=O)c1cc[n+]([O-])cc1)C1CCN(C(=O)[C@H](C)N)CC1 (stereo partly drawn) [compound 209, 4-((1-(1-(L-alanyl)piperidin-4-yl)ethyl)carbamoyl)pyridine 1-oxide]	> 100 µM
N[C@H]1CC[C@H](NC(=O)c2cc[n+]([O-])cc2)CC1 [compound 210, 4-(((1r,4r)-4-aminocyclohexyl)carbamoyl)pyridine 1-oxide]	> 100 µM
Nc1ccnc2ccc(C(=O)N[C@H]3CC[C@H](N)CC3)cc12 [compound 211, 4-amino-N-((1r,4r)-4-aminocyclohexyl)quinoline-6-carboxamide]	43.7 µM
CC(NC(=O)c1ccc2nccc(N)c2c1)C1CCN(C(=O)[C@H](C)N)CC1 (stereo partly drawn) [compound 212, N-(1-(1-(L-alanyl)piperidin-4-yl)ethyl)-4-aminoquinoline-6-carboxamide]	15.2 µM
O=C1Cc2cc(C(=O)NC[C@@H]3CCNC3)ccc2N1 [compound 213, (R)-2-oxo-N-(pyrrolidin-3-ylmethyl)indoline-5-carboxamide]	17.9 µM

Same assay, conditions: read-out: SMYD3 Biochem IC50 (μM)*

SMILES	IC50
COc1ccc2cc(C(C)C(=O)N[C@H]3CC[C@H](NC(=O)CCN)CC3)ccc2c1 (some centres unmarked) [compound 169, 3-amino-N-((1r,4r)-4-(2-(6-methoxynaphthalen-2-yl)propanamido)cyclohexyl)propanamide]	> 100 µM
COc1ccc2cc(C(C)C(=O)N[C@H]3CC[C@H](N)CC3)ccc2c1 (some centres unmarked) [compound 170, N-((1r,4r)-4-aminocyclohexyl)-2-(6-methoxynaphthalen-2-yl)propanamide]	76.4 µM
CC(NC(=O)c1nccc2ccccc12)C1CCN(C(=O)[C@H](C)N)CC1 (stereo partly drawn) [compound 171, N-(1-(1-(L-alanyl)piperidin-4-yl)ethyl)isoquinoline-1-carboxamide]	> 100 µM
N[C@H]1CC[C@H](NC(=O)c2n[nH]c3ccccc23)CC1 [compound 172, N-((1r,4r)-4-aminocyclohexyl)-1H-indazole-3-carboxamide]	> 100 µM
NCC(=O)N[C@H]1CC[C@H](NC(=O)c2ccc3c(c2)CC(=O)N3)CC1 [compound 174, N-((1r,4r)-4-(2-aminoacetamido)cyclohexyl)-2-oxoindoline-5-carboxamide]	0.63 µM
CC(N)C(=O)N[C@H]1CC[C@H](NC(=O)c2ccc3c(c2)CC(=O)N3)CC1 (some centres unmarked) [compound 175, N-((1r,4r)-4-(2-aminopropanamido)cyclohexyl)-2-oxoindoline-5-carboxamide]	0.42 µM
C[C@H](N)C(=O)N1CCC(C)(CNC(=O)c2ccc3c(c2)CC(=O)N3)CC1 [compound 176, N-((1-(L-alanyl)-4-methylpiperidin-4-yl)methyl)-2-oxoindoline-5-carboxamide]	3.52 µM
C[C@@H](N)C(=O)N1CC[C@H](CNC(=O)c2ccc3c(c2)CC(=O)N3)C1 [compound 177, N-(((R)-1-(D-alanyl)pyrrolidin-3-yl)methyl)-2-oxoindoline-5-carboxamide]	19.8 µM
CN(C(=O)CCN)C1CCC(NC(=O)c2ccc3c(c2)CC(=O)N3)CC1 (centres unmarked) [compound 178, N-(4-(3-amino-N-methylpropanamido)cyclohexyl)-2-oxoindoline-5-carboxamide]	3.4 µM
Cc1nc(-c2ccc(C(=O)NC(C)C3CCN(C(=O)[C@H](C)N)CC3)cc2)no1 (stereo partly drawn) [compound 179, N-(1-(1-(L-alanyl)piperidin-4-yl)ethyl)-4-(5-methyl-1,2,4-oxadiazol-3-yl)benzamide]	> 100 µM
Cc1n[nH]c(C)c1C(=O)NC(C)C1CCN(C(=O)[C@H](C)N)CC1 (stereo partly drawn) [compound 180, N-(1-(1-(L-alanyl)piperidin-4-yl)ethyl)-3,5-dimethyl-1H-pyrazole-4-carboxamide]	> 100 µM
Cc1n[nH]c(C)c1C(=O)N[C@H]1CC[C@H](NC(=O)CCN)CC1 [compound 181, N-((1r,4r)-4-(3-aminopropanamido)cyclohexyl)-3,5-dimethyl-1H-pyrazole-4-carboxamide]	> 100 µM
